Literature values, collected in patent publication US20110091544A1 (priority 2009, published 2011).
Read-outs that look alike come from different tables or passages of the source.

What was measured:
[1] = 250 mcg or 375 mcg sublingual
healthy children = conditions: oral 0.025 mg/kg, children aged 6 to 9 years
dental outpatients = conditions: in vivo
[2] = not given; remark: listed apart in the source
[3] = test system: 61-70 year old patients scheduled for ophthalmic surgery; conditions: 200 mcg sublingual
[4] = test system: healthy young subjects and healthy elderly subjects; conditions: 125 mcg and 250 mcg
[5] = 0.2 mg/kg; 30 min after premedication; children
acute seizures = conditions: nasal
[6] = not given; remark: listed apart in the source
[7] = test system: pediatric patients undergoing outpatient surgery; conditions: in vivo
[8] = test system: children scheduled for day surgery
patients = conditions: 7.5 mg; at 30 and 60 min after administration

Cc1nnc2n1-c1ccc(Cl)cc1C(c1ccccc1Cl)=NC2 [triazolam, 8-chloro-6-(o-chlorophenyl)-1-methyl-4H-s-triazolo-[4,3-alpha][1,4]benzodiazepine]
Cmax, range ([1]; children): 4.0 to 8.2 ng/mL | Tmax, range ([1]; children): 0.5 to 2 h | elimination half-life, range ([1]; children): 0.85 to 2.33 h | Cmax ([1]; children 64-98 months old, mean+/−SD): 4.9 ± 2.0 ng/mL | Tmax ([1]; children, mean+/−SD): 1.25 ± 0.533 h | elimination half-life ([1]; children, mean+/−SD): 1.52 ± 0.533 h | time to peak plasma concentration (healthy children): 74 ± 25 min | peak plasma concentration (healthy children; mean+/−SD): 8.5 ± 3.0 ng/mL | higher bioavailability (dental outpatients): 28% | anxiety and pain at 15 minutes intraoperatively (dental outpatients; po): significantly less anxiety and pain | elimination half-life (500 mcg oral): 3.7 h | mean total area under the curve (500 mcg oral): 22.6 ng·h/mL | peak plasma concentration (500 mcg oral): 3.9 ng/mL | time of peak concentration (500 mcg oral): 1.25 h | elimination half-life (500 mcg sublingual): 4.1 h | mean total area under the curve (500 mcg sublingual): 28.9 ng·h/mL | peak plasma concentration (500 mcg sublingual): 4.7 ng/mL | time of peak concentration (500 mcg sublingual): 1.22 h | bioavailability greater than oral (500 mcg sublingual versus oral, average): 28% | increase in Cmax ([2]; elderly versus young adults): 50% | Tmax ([2]; no change elderly versus young adults): 0.9 h | plasma half-life ([2]; orally administered): 1.5 to 5.5 h | higher peak plasma level ([2]; sublingual compared with oral administration): 20% | depth of sedation compared with 10 mg oral diazepam [3]: deeper sedation | time at which sedation developed after administration [3]: 60 to 90 min | sedation and psychomotor performance, healthy elderly versus young persons at the same dose [4]: greater degree of sedation and greater impairment of psychomotor performance

Cc1ncc2n1-c1ccc(Cl)cc1C(c1ccccc1F)=NC2 [midazolam, 8-chloro-6-(2-fluorophenyl)-1-methyl-4H-imidazo[1,5-a][1,4]benzodiazepine]
midazolam level, sublingual group versus nasal group [5]: statistically significantly higher | treatment of acute seizures (acute seizures): effective | maximum plasma concentrations ([6]; 15 mg oral dose): 70 to 120 ng/mL | time to maximum plasma concentrations ([6]; 15 mg oral dose): within one hour | prolongation of plasma half-life ([6]; adults greater than 60 years): up to 3 times | plasma half-life ([6]; orally administered): 1.5 to 5 h | oral bioavailability ([6]; with a broad range): approximately 36% | children who had not previously cried who cried on administration [7]: 71% | patients who experienced nasal irritation [7]: 20 patients | children showing satisfactory sedation at 15 min after administration ([8]; 0.25 mg/kg sublingual, P=0.02): 28% | children showing satisfactory sedation at 15 min after administration ([8]; 0.5 mg/kg sublingual, P<0.001): 52% | children showing satisfactory sedation at 15 min after administration ([8]; 0.75 mg/kg sublingual, P<0.001): 64% | sedation scores, sublingual group versus oral group (patients): higher
